The results in this text go back to PubChem BioAssay (NCI).

Common to all, as to test: NCI anticancer screen, dose series, 48 h
Assay [1] concerns OVCAR-3 ovarian.
Assay [2] has as its system SNB-75 CNS.
In assay [3] the test system is CAKI-1 renal.
In assay [4] the test system is HOP-92 NSCLC.
Assay [5] deals with NCI-H226 lung.
In assay [6] the test system is HS 578T breast.
For assay [7], the system named is SF-295 CNS.
In assay [8] the test system is UO-31 renal.
The test system of assay [9] is SW-620 colon.
Assay [10] relates to MDA-MB-435.

Structures are written as SMILES.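 96-well plates; 48 h exposure; 5 concentrations. Endpoints by linear interpolation between flanking doses. Not reached: highest tested concentration assigned. Here, GI50 denotes the concentration required for 50% inhibition of growth. TGI denotes the concentration required for complete inhibition of growth.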

Regarding `Nc1c(C(=O)Nc2cccc3ccccc23)sc2nc3c(cc12)CCCC3`, the GI50 in assay [1] is 577 nM; in assay [2], 1040 nM; in [3], 5.9 µM; in [4] it was 76.9 nM; in assay [5], 17.5 µM; in assay [6], 852 nM. Further, the GI50 in [7] was 621 nM; in assay [8] it was 3.47 µM; in assay [9], 552 nM. For the same molecule, the TGI in [1] is over 100 µM; in assay [2], over 100 µM; in assay [3], over 100 µM; in [4], 9.29 µM; in assay [5], over 100 µM; in assay [6] it was over 100 µM. The TGI in assay [7], in assay [8] and in assay [9] was over 100 µM each time.
For `COc1cc2c(c3oc(-c4ccc5c(c4)OCO5)c(O)c(=O)c13)CCC(C)(C)O2`, the TGI in assay [1], in assay [2], in assay [5], in [7], in assay [8] and in assay [9] was over 100 µM throughout.
As to `C#CCOCn1cnc2ncnc(Cl)c21`, the TGI in [1], in assay [2], in assay [3], in assay [4], in [5] and in assay [7] was over 100 µM throughout. The TGI in [8] and in assay [9] was over 100 µM in each case.
In the case of `CCN(CC)C(=O)c1c(N2CCOCC2)cc(N(CC)CC)oc1=O`, the TGI in [1], in [2], in assay [4], in [5], in [7] and in assay [8] was over 100 µM in each case. Besides, the TGI in [9] is over 100 µM.
Regarding `CSc1nc(Cl)c(Br)c(Nc2c[nH]c(=O)[nH]c2=O)n1`, the TGI worked out at 40.7 µM in assay [1]; 42.7 µM in assay [2]; 3.22 µM in assay [3]; 31.8 µM in [4]; 41.7 µM in assay [5]; 42.6 µM in assay [7]. For the same molecule, the results for the TGI in assay [8], in [10] and in [9] were 37.5 µM, 83.7 µM and over 100 µM, respectively.
Take `CC(C)O/C=C1\C(=O)C2(SCCS2)[C@H]2CCCC[C@@H]12`: the TGI in assay [2], in assay [3], in [5], in assay [8] and in assay [9] was over 100 µM throughout.
In the case of `CC1=C(C(=O)Nc2ccccc2C)C(c2ccc(N(C)C)cc2)C(C(=O)Nc2ccccc2C)=C(C)N1`, the TGI in assay [1], in assay [5], in [7], in assay [8] and in assay [9] was over 100 µM in each case.
As for `COc1ccc(-c2cc(-c3ccccc3)c(C#N)c(=O)[nH]2)cc1`, the TGI in assay [1], in assay [2], in assay [4], in [5], in [7] and in assay [8] was over 100 µM throughout. The TGI in assay [9] was over 100 µM.
On to `COc1ccc2oc(-c3ccncc3)cc(=O)c2c1`, for which the TGI in assay [1], in assay [2], in [3], in assay [4], in assay [5] and in assay [7] was over 100 µM throughout. In assay [8], this molecule gave a TGI of over 100 µM.
Consider `CCCNC(=O)c1cc2ccccc2cc1C(=O)OC`, for which the TGI is over 100 µM in [1]; 75.8 µM in assay [2]; over 100 µM in assay [3]; over 100 µM in assay [4]; over 100 µM in assay [5]; over 100 µM in assay [7]. The TGI in [8] and in assay [9] was over 100 µM each time.
Take `NNC(=O)CC(=O)Nc1ccccc1F`: the TGI in [1], in assay [2], in assay [3], in [4], in [5] and in assay [7] was over 100 µM in each case. For the same molecule, the TGI in assay [8] and in [9] was over 100 µM each time.
In the case of `COc1cc(C)c(C(=O)/C=C/c2cc(OC)c(O)c(OC)c2)cc1O`, the TGI was 91.1 µM in [1]; over 100 µM in [2]; over 100 µM in assay [3]; over 100 µM in assay [7]; 57.5 µM in assay [8]; 70.8 µM in assay [9].
`CC1SC2=NC3=C(c4ccccc4C3=O)C(c3ccc(Br)cc3)N2C1=O` (configuration not stated): the TGI is over 100 µM in assay [1]; 96.9 µM in [2]; over 100 µM in assay [3]; over 100 µM in assay [4]; over 100 µM in assay [5]; over 100 µM in [7]. Further, the TGI in assay [8] and in assay [9] was over 100 µM throughout.
Take `O=C1Cc2ccccc2N1/N=C\c1ccc(O)cc1`: the TGI in assay [1] is over 100 µM; in assay [2] it was 70.5 µM; in [3] it was over 100 µM; in [4], over 100 µM; in [5], over 100 µM; in assay [7], over 100 µM. Besides, the TGI in assay [8] and in assay [9] was over 100 µM throughout.
Regarding `CCOC(=O)c1c(-c2[nH]c(C(=O)OCc3ccccc3)c(C)c2C(=O)OCC)[nH]c(C(=O)OCc2ccccc2)c1C`, the TGI in assay [1] is over 100 µM; in [2] it was 77.2 µM; in assay [3], over 100 µM; in [4], over 100 µM; in assay [5], over 100 µM; in assay [7], over 100 µM. Also, the TGI in [8] and in assay [9] was over 100 µM each time.
Regarding `O=C1c2c(c3c4ccccc4n4c3c3c2c2ccccc2n3C/C=C\C4)C(=O)N1Cc1ccccc1`, the TGI is over 100 µM in assay [1]; 68.9 µM in assay [2]; over 100 µM in assay [5]; over 100 µM in assay [7]; over 100 µM in assay [8]; over 100 µM in assay [9].
Take `CC(=O)Nc1ccc(-c2nnc(SCC(=O)Nc3ccccc3[N+](=O)[O-])o2)cc1`: the TGI in assay [1], in assay [2], in assay [3], in assay [4], in assay [5] and in assay [7] was over 100 µM in each case. Moreover, the TGI in [8] and in assay [9] was over 100 µM each time.
